The values that follow come from US20240238232A1, “COMPOSITIONS AND METHODS FOR THE REDUCTION OR TREATMENT OF INSULIN RESISTANCE AND METABOLIC CONDITIONS” (AXCELLA HEALTH INC., priority 2018, published 2024).

Assay [1] deals with ob/ob mice; C57/BL6. The settings on record: cited from earlier work.
Assay [2] relates to B6.Cg-Lep^ob/J (ob/ob) mouse model. The experiment in a line: Oral glucose tolerance test (OGTT) in ob/ob mice, Example 1. The settings on record: timepoint −1 hours. The format is in vivo.
For assay [3] the test system is unchanged. The description is as above. The format is in vivo. To be noted: for Blood glucose levels raw data: individual ob/ob mice, OGTT, metformin 450 mg/kg, hydrochloride; for Mean blood glucose level: ob/ob mice OGTT Day 3, metformin hydrochloride 450 mg/kg QD PO. As to the method: Amino Acid Composition A-1 and metformin were tested for their ability to affect glucose tolerance in a genetically obese B6.Cg-Lep^ob/J (ob/ob) mouse model (Maida A, et al., 2010, PMID: 20972533).
Eight-week-old male ob/ob mice were subjected to treatment of test articles (Amino Acid Composition A-1 and metformin) followed by oral glucose tolerance test (OGTT) on Day 3. Mice were randomized by body weight and unfasted blood glucose on Day −1. Body weight was recorded daily in the morning before AM dosing on Day 1, Day 2, and Day 3. Test articles were dosed by oral gavage at 10 ml/kg. Dosage of a test article was calculated based on daily body weight. Treatment schedule and dose are listed in the following section (Table 34). AM doses were administered at 0700, and PM doses were administered at 1800. Oral glucose tolerance test (OGTT) was performed after 6-hour fasting on Day 3.
Mice were fasted for 6 hours prior to OGTT test. Food was removed at 0700 hours on Day 3; water was provided during fasting. Blood samples were collected from tail snip or facial puncture at −30 min (relative to OGTT) into K2EDTA tubes for baseline glucose and blood biochemistry (insulin, triglyceride, and cholesterol). Blood glucose was measured by a glucometer (SDI StatStrip Xpress or equivalent). Plasma was collected in K2EDTA and saved at −80° C.
Mice were bled for baseline glucose and plasma at −30 min. Test articles were then dosed by oral gavage at −30 min. Glucose was administered per os (P.O.) at a dosage of 2.0 g/kg body weight. Blood glucose levels were measured at 0 min immediately prior to glucose injection and then at 15, 30, 60, 120 and 240 minutes thereafter (shown as 0.25, 0.5, 1, 2, and 4 hours in Table 35 below).
Data are mean±standard deviation (stdev). (p values by Dunnett's multiple comparisons: **p<0.005 compared to vehicle control; ***p<0.001 compared to vehicle control; ****p<0.0005 compared to vehicle control.)

Values joined by “and” are separate entries in the source; they are usually repeats but may differ in a detail not shown here. Identical values can stand only once. Counter-ions that a name gives are not always drawn. Marks after values point to notes of the source that are not given here.

As to `CN(C)C(=N)N=C(N)N` [Metformin, Metformin hydrochloride], the “Glucose tolerance (OGTT)” value in assay [1] (C57/BL6, single dose) was “improves glucose tolerance”. Also, in assay [1] (ob/ob mice (Cool B, et al., 2006)), the Plasma glucose entry is listed as “lowers plasma glucose”. In addition, the NAFLD result in assay [1] (ob/ob mice (Lin H Z et al., 2000; Cool B, et al., 2006)) was “reverses NAFLD”. Moreover, the “Blood glucose levels raw data” value in assay [2] (individual ob/ob mice, OGTT, metformin 450 mg/kg, hydrochloride) was 265 mg/dL and 248 mg/dL and 183 mg/dL and 120 mg/dL and 166 mg/dL; in assay [3] (timepoint 0 hours) it was 274 mg/dL and 234 mg/dL and 220 mg/dL and 129 mg/dL and 140 mg/dL; in assay [3] (timepoint 0.25 hours) it was 387 mg/dL and 397 mg/dL and 427 mg/dL and 310 mg/dL and 247 mg/dL; in assay [3] (timepoint 0.5 hours), 462 mg/dL and 439 mg/dL and 482 mg/dL and 307 mg/dL and 261 mg/dL; in assay [3] (timepoint 1 hours) it was 365 mg/dL and 399 mg/dL and 431 mg/dL and 239 mg/dL and 154 mg/dL; in assay [3] (timepoint 2 hours), 154 mg/dL and 183 mg/dL and 219 mg/dL and 124 mg/dL and 111 mg/dL. For the same molecule, the “Blood glucose levels raw data” value in assay [3] (timepoint 4 hours) is 118 mg/dL and 93 mg/dL and 155 mg/dL and 101 mg/dL and 80 mg/dL. Also, the “Mean blood glucose level” value in assay [2] (ob/ob mice OGTT Day 3, metformin hydrochloride 450 mg/kg QD PO) was 196.4 mg/dL; in assay [3] (timepoint 0 hours), 199.4 mg/dL; in assay [3] (timepoint 0.25 hours), 353.6**** mg/dl; in assay [3] (timepoint 0.5 hours), 390.2*** mg/dl; in assay [3] (timepoint 1 hours), 317.6 mg/dL; in assay [3] (timepoint 2 hours), 158.2 mg/dL. Also, the “Mean blood glucose level” value in assay [3] (timepoint 4 hours) is 109.4 mg/dL.
